This is an account of results in patent US9474758B2, “Thienopyrimidinedione derivatives as TRPA1 modulators” (Glenmark Pharmaceuticals S.A., priority 2009, dated 2016).

Structures are written as SMILES. pIC50: −log10 of the molar value. Where two headings read alike, the source gives them in different places.

For test [1], the target named is T1, Human TRPA1 expressing CHO cells (Homo sapiens, UniProt O75762).
T1 construct: expressed in transfected cells; host or cells: CHO cells (G-418 selection)
T1 sequence (O75762 whole entry): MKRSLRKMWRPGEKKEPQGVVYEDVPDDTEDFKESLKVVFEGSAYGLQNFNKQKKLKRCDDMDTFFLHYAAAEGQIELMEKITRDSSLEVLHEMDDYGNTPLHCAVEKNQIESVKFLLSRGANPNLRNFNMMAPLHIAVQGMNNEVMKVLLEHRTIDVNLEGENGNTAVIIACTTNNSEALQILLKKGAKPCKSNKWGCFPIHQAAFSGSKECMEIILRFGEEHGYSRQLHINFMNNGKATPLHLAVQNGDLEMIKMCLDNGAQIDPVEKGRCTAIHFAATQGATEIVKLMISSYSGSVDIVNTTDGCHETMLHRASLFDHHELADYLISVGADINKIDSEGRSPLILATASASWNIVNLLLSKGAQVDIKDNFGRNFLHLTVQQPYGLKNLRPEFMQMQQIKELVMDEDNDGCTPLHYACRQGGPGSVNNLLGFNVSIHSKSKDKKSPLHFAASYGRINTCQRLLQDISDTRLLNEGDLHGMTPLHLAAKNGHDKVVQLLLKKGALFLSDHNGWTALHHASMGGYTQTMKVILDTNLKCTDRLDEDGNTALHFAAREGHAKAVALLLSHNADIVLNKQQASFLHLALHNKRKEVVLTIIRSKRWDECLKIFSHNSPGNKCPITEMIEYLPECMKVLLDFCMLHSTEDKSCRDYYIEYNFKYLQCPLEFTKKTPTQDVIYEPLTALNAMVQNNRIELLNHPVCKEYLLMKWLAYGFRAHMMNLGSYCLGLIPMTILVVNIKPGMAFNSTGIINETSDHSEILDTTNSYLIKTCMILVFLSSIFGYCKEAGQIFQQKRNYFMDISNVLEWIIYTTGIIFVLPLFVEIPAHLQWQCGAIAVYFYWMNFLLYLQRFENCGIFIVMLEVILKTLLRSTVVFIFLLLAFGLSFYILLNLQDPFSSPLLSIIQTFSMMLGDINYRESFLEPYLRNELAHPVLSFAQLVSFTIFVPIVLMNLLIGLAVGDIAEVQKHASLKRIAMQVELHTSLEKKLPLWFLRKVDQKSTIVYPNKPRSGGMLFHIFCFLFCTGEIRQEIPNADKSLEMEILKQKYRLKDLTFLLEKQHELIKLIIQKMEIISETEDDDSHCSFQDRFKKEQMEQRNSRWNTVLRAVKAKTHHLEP
The test is described as follows: 45Calcium uptake assay, inhibition of AITC induced calcium uptake (human). The test is classed as cell-based. As to conditions: for inhibition at 1 µM: read-out: Percentage inhibition at 1.0 μM; for inhibition at 10 µM: read-out: Percentage inhibition at 10.0 μM. In outline:
(§1)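 CHO cells expressing rat or human TRPA1 were pre-treated with compound for 10 min, then given AITC (30 μM human, 10 μM rat) plus 5 μCi/ml 45Ca2+ for 3 min; final DMSO 0.5%. Lysate radioactivity was counted by scintillation. IC50 came from nonlinear regression of concentration-response curves as % of maximal response.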

The target in test [2] is T2, Rat TRPA1 expressing CHO cells (Rattus norvegicus, UniProt Q6RI86).
T2 construct: expressed in transfected cells; host or cells: CHO cells (Zeocin selection)
T2 sequence (Q6RI86 whole entry): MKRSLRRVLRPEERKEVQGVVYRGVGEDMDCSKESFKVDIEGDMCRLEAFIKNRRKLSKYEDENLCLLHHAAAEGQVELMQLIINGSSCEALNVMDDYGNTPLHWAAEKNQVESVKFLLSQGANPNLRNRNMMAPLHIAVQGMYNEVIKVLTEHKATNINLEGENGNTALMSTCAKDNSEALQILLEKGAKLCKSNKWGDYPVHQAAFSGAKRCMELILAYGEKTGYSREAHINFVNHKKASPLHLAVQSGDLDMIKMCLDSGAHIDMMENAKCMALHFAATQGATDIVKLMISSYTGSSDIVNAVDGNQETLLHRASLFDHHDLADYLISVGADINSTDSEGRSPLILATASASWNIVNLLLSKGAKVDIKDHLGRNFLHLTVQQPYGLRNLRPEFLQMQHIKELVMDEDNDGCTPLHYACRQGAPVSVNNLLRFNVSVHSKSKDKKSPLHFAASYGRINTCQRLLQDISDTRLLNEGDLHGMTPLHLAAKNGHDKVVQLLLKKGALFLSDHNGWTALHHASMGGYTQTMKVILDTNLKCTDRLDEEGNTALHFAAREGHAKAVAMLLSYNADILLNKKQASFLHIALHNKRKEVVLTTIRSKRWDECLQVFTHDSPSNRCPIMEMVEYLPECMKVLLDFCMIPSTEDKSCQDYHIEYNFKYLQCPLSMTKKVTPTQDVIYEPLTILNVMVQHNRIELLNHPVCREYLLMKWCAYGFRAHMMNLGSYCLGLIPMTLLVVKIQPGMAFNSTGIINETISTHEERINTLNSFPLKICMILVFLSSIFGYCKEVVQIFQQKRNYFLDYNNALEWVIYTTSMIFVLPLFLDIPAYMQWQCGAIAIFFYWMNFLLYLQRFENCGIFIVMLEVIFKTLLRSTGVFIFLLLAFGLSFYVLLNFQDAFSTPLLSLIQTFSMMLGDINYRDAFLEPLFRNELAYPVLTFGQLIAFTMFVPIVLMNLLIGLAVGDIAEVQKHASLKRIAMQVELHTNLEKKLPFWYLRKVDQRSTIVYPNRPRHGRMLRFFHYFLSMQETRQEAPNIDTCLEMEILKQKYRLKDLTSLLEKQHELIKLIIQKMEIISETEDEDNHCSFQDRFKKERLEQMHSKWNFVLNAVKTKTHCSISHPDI
The experiment in a line: 45Calcium uptake assay, inhibition of AITC induced calcium uptake (rat). The test is classed as cell-based. To be noted: for inhibition at 1 µM: read-out: Percentage inhibition at 1.0 μM; for inhibition at 10 µM: read-out: Percentage inhibition at 10.0 μM; for pIC50: read-out: Rat IC50 value (Range). In outline:
as §1

Where [3] appears, read: human TRPA1 CHO cells, AITC 30 μM, compound 1.0 μM.
The mark [4] stands for this setting: human TRPA1 CHO cells, AITC 30 μM, compound 10.0 μM.
Setting [5] is: human TRPA1 CHO cells, AITC 30 μM, read-out: Human IC50 value (Range).
Setting [6] is: rat TRPA1 CHO cells, AITC 10 μM, compound 1.0 μM.
[7] abbreviates: rat TRPA1 CHO cells, AITC 10 μM, compound 10.0 μM.
[8] abbreviates: rat TRPA1 CHO cells, AITC 10 μM.

On to `Cn1c(=O)c2c(CC(=O)Nc3nc(-c4ccc(F)c(OC(F)(F)F)c4)cs3)scc2n(C)c1=O` [Example 55, 2-(1,3-Dimethyl-2,4-dioxo-1,2,3,4-tetrahydrothieno[3,4-d]pyrimidin-5-yl)-N-{4-[4-fluoro-3-(trifluoromethoxy)phenyl]-1,3-thiazol-2-yl}acetamide], for which the inhibition (in general, the share of the control response that was lost under treatment) at 1 µM in test [1] (setting [3]) turned out to be 99.6%; in test [2] (setting [6]), 70.4%. In addition, the figures for the inhibition at 10 µM in test [1] (setting [4]) and in test [2] (setting [7]) were 99.8% and 99.9%, respectively. In test [1] (setting [5]), the pIC50 (usually −log10 of the IC50, conventionally taken in molar units) was above 7.30.
As to `CCCc1sc2c(c1CC(=O)Nc1nc(-c3ccc(C(F)(F)F)c(F)c3)cs1)c(=O)n(C)c(=O)n2C` [Example 35, N-{4-[3-Fluoro-4-(trifluoromethyl)phenyl]-1,3-thiazol-2-yl}-2-(1,3-dimethyl-2,4-dioxo-6-propyl-1,2,3,4-tetrahydrothieno[2,3-d]pyrimidin-5-yl) acetamide], the results for the inhibition at 1 µM in test [1] (setting [3]) and in test [2] (setting [6]) were 99.1% and 90.1%, respectively. Besides, the inhibition at 10 µM in test [1] (setting [4]) is 100%; in test [2] (setting [7]) it was 98.3%. For the same compound, the figures for the negative-log IC50 (pIC50) in test [1] (setting [5]) and in test [2] (setting [8]) were above 7.30 and 6.30 to 7.30, respectively.
In the case of `Cc1sc2c(c1CC(=O)Nc1nc(-c3ccc(F)c(C(F)(F)F)c3)cs1)c(=O)n(C)c(=O)n2C` [Example 23, N-{4-[4-Fluoro-3-(trifluoromethyl)phenyl]-1,3-thiazol-2-yl}-2-(1,3,6-trimethyl-2,4-dioxo-1,2,3,4-tetrahydrothieno[2,3-d]pyrimidin-5-yl)acetamide], the inhibition at 1 µM in test [1] (setting [3]) is 97.7%; in test [2] (setting [6]), 100%. The inhibition at 10 µM in test [1] (setting [4]) came to 99%; in test [2] (setting [7]), 99.7%. The pIC50 was above 7.30 in test [1] (setting [5]) and 6.30 to 7.30 in test [2] (setting [8]).
For `Cn1c(=O)c2c(CC(=O)Nc3nc(-c4ccc(F)c(C(F)(F)F)c4F)cs3)csc2n(C)c1=O` [Example 13, N-{4-[2,4-Difluoro-3-(trifluoromethyl)phenyl]-1,3-thiazol-2-yl}-2-(1,3-dimethyl-2,4-dioxo-1,2,3,4-tetrahydrothieno[2,3-d]pyrimidin-5-yl)acetamide], in test [1] (setting [3]), the inhibition at 1 µM came out at 98.2%. The inhibition at 10 µM in test [1] (setting [4]) worked out at 98.1%. The pIC50 in test [1] (setting [5]) and in test [2] (setting [8]) was above 7.30 in each case.
Consider `Cn1c(=O)c2c(CC(=O)Nc3nc(-c4ccc(Cl)c(Cl)c4)cs3)scc2n(C)c1=O` [Example 53, N-[4-(3,4-Dichlorophenyl)-1,3-thiazol-2-yl]-2-(1,3-dimethyl-2,4-dioxo-1,2,3,4-tetrahydrothieno[3,4-d]pyrimidin-5-yl)acetamide], for which the values for the inhibition at 1 µM in test [1] (setting [3]) and in test [2] (setting [6]) were 97.8% and 42.7%, respectively. In addition, the inhibition at 10 µM in test [1] (setting [4]) worked out at 99.3%; in test [2] (setting [7]) it was 97.9%. In addition, the pIC50 in test [1] (setting [5]) was 6.30 to 7.30.
Regarding `CCc1sc2c(c1CC(=O)Nc1nc(-c3cc(F)c(OC(F)F)c(F)c3)cs1)c(=O)n(C)c(=O)n2C` [Example 33, N-{4-[4-(Difluoromethoxy)-3,5-difluorophenyl]-1,3-thiazol-2-yl}-2-(6-ethyl-1,3-dimethyl-2,4-dioxo-1,2,3,4-tetrahydrothieno[2,3-d]pyrimidin-5-yl)acetamide], the inhibition at 1 µM was 96.9% in test [1] (setting [3]) and 96.5% in test [2] (setting [6]). Also, the inhibition at 10 µM was 96.9% in test [1] (setting [4]) and 97.3% in test [2] (setting [7]). Moreover, the pIC50 in test [1] (setting [5]) is above 7.30; in test [2] (setting [8]), 6.30 to 7.30.
In the case of `Cn1c(=O)c2c(CC(=O)Nc3nc(-c4cccc(C(F)(F)F)c4)cs3)scc2n(C)c1=O` [Example 46], the inhibition at 1 µM in test [1] (setting [3]) was 93.9%; in test [2] (setting [6]), 93.2%. Moreover, the inhibition at 10 µM in test [1] (setting [4]) worked out at 98.5%; in test [2] (setting [7]) it was 99.7%. Also, the pIC50 was above 7.30 in test [1] (setting [5]) and 6.30 to 7.30 in test [2] (setting [8]).
`Cn1c(=O)c2c(CC(=O)Nc3nc(-c4ccc(C(F)(F)F)cc4F)cs3)scc2n(C)c1=O` [Example 51, 2-(1,3-Dimethyl-2,4-dioxo-1,2,3,4-tetrahydrothieno[3,4-d]pyrimidin-5-yl)-N-{4-[2-fluoro-4-(trifluoromethyl)phenyl]-1,3-thiazol-2-yl}acetamide]: the inhibition at 1 µM worked out at 96.9% in test [1] (setting [3]) and 93% in test [2] (setting [6]). In addition, the inhibition at 10 µM is 99.7% in test [1] (setting [4]) and 100% in test [2] (setting [7]). Further, the pIC50 was above 7.30 in test [1] (setting [5]) and 6.30 to 7.30 in test [2] (setting [8]).
On to `Cn1c(=O)c2c(CC(=O)Nc3nc(-c4ccc(C(F)(F)F)cc4F)cs3)csc2n(C)c1=O` [Example 7, 2-(1,3-Dimethyl-2,4-dioxo-1,2,3,4-tetrahydrothieno[2,3-d]pyrimidin-5-yl)-N-{4-[2-fluoro-4-(trifluoromethyl)phenyl]-1,3-thiazol-2-yl}acetamide], for which, in test [1], the pIC50 was above 7.30. Besides, the inhibition at 1 µM in test [1] (CHO) was 80.4%; in test [2] (CHO), 26.6%. Besides, the inhibition at 10 µM in test [1] (CHO) was found to be 99.8%; in test [2] (CHO), 100%.
Consider `Cc1sc2c(c1CC(=O)Nc1nc(-c3cccc(OC(F)(F)F)c3)cs1)c(=O)n(C)c(=O)n2C` [Example 18, N-{4-[3-(Trifluoromethoxy)phenyl]-1,3-thiazol-2-yl}-2-(1,3,6-trimethyl-2,4-dioxo-1,2,3,4-tetrahydrothieno[2,3-d]pyrimidin-5-yl)acetamide], for which the figures for the inhibition at 1 µM in test [1] (setting [3]) and in test [2] (setting [6]) were 98.5% and 95.7%, respectively. Further, the inhibition at 10 µM in test [1] (setting [4]) and in test [2] (setting [7]) was 100% each time. Further, in test [1] (setting [5]), the pIC50 is 6.30 to 7.30.
In the case of `CCc1sc2c(c1CC(=O)Nc1nc(-c3cc(F)c(OCC(F)(F)F)c(F)c3)cs1)c(=O)n(C)c(=O)n2C` [Example 34, N-{4-[3,5-Difluoro-4-(2,2,2-trifluoroethoxy)phenyl]-1,3-thiazol-2-yl}-2-(6-ethyl-1,3-dimethyl-2,4-dioxo-1,2,3,4-tetrahydrothieno[2,3-d]pyrimidin-5-yl)acetamide], the figures for the inhibition at 1 µM in test [1] (setting [3]) and in test [2] (setting [6]) were 97.4% and 88.7%, respectively. Further, the inhibition at 10 µM in test [1] (setting [4]) turned out to be 98.4%; in test [2] (setting [7]) it was 93.3%. The results for the pIC50 in test [1] (setting [5]) and in test [2] (setting [8]) were above 7.30 and 6.30 to 7.30, respectively.
